# Laboratory results taken from patent US6670132B2, “Determining non-nucleic acid molecule binding to target by competition with nucleic acid ligand” (Gilead Sciences, Inc., priority 1999, dated 2003).
# [NH2-N] = 2'-amino-2'-deoxy sugar (2'-aminopyrimidine nucleotide) (N: the base)
# B1: 11.20: 98-mer RNA transcript with 2′aminopyrimidine bases, WGA aptamer (nucleic acid)
# chain: GGGAAAAGCGAAUCAUACACAAGAUUGGUCGUACUGGACAGAGCCGUGGUAGAGGGAUUGGGACAAAGUGUCAGCUCCGCCAGAGACCAACCGAGAA
# modifications: [NH2-N] at CU, RNA at AG, all phosphodiester, methylation of C not given here
# Key:
# PDGF-BB [1] = target: T1, PDGF-BB (Homo sapiens, UniProt P01127); experiment: Binding of PDGF aptamers to PDGF-BB
# T1 construct: purchased R&D Systems (Minneapolis, Minn.)
# T1 sequence (P01127 82-190 limits assumed): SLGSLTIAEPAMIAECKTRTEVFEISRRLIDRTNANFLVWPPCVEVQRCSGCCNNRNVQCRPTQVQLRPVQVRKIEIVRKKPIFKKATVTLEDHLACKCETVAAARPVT
# From the text: For the PDGF competition assay, a DNA PDGF aptamer sequence identified previously was used. The aptamer and methods used herein are described in detail in Example One. Aptamers obtained in this experiment bind preferentially to the B-chain of PDGF in a manner that inhibits receptor binding and PDGF-BB-induced DNA synthesis in vitro. Using photo-crosslinking experiments, it has been shown that a specific nucleotide in the aptamer interacts with phenylalanine-84 of the PDGF B-chain which is located near the region of PDGF know to be involved in receptor binding (Green, L. S. et al. (1996) Biochemistry 35, 14413-24). […] Thus, the aptamer used for competition binding experiments, 20tb, is a 27-mer that binds to PDGF-BB with a Kd of 0.5 nM.
# A panel of oligoanions, mostly in the naphthalene sulfonic acid class, were screened for their ability to displace a ^32P-radiolabeled aptamer (20tb) from PDGF-BB. […] A nitrocellulose filter binding method was used to separate bound from unbound aptamer. Structures of competitors used in this competition assay are shown in FIGS. 1A-C along with the Kdc values calculated form the competition profiles (FIG. 2) according to equations (1)-(3) (Experimental Methods). For all competition experiments, the concentration of the ^32P end-labeled 20tb aptamer and PDGF-BB was 1.16 nM and 1.0 nM, respectively. […]
# [2] = test system: wheat germ agglutinin (WGA); experiment: Wheat germ agglutinin aptamer competition assay (displacement of 32P-labeled 11.20, nitrocellulose filter binding); parameters: species or system Triticum vulgare; conditions: 10 nM 32P end-labeled 11.20, 10 nM WGA, room temperature
# Protocol: Small molecule oligosaccharides were screened for their ability to compete with WGA aptamer 11.20 for binding to wheat germ agglutinin protein. The small molecule (or cold 11.20) competitors at varying concentrations were mixed with the 5′-32P end-labeled 11.20 ligand at room temperature. Then WGA was added to the mixture and allowed to equilibrate for 60 minutes at room temperature. The competition mixtures (90 μL volume) all had 32P end-labeled 11.20 at 10 nM, WGA at 10 nM and were in 25 mM Hepes, 137 mM NaCl, 2.7 mM KCl, 1 mM MgCl2, 1 mM CaCl2, 0.067% human serum albumin (HSA), at pH 7.4 (HBSMC). Aptamer bound to WGA was separated from free aptamer by filtration through pre-washed […] nitrocellulose membrane filters. Filters were washed with 5 mL HBSMC at room temperature. The filters were placed in tubes with scintillant and the radioactivity counted to quantitate the fraction of 32P end-labeled 11.20 bound at each competitor concentration.
# Competition experiments were analyzed by the following equation to determine the concentration of free protein, [PF], as a function of the total concentration of competitor added, [CT]:
# [PF]=[PT]/(1+KdR[RT]/(1+KdR[PF])+KdC[CT]/(1+KdC[PF])) (1)
# (§1) where KdR is the binding constant of species R to the protein (assuming 1:1 stoichiometry) and KdC is the binding constant of species C, the competitor, to the protein (assuming 1:1 stoichiometry). Equation (1) was solved to self-consistency of [PF] to a precision of 1×10^−15. Using these values of [PF], the concentration of protein-ligand complex [PR] as a function of [CT] was determined by the following equation:
# [PR]=KdR[RT][PF](1+KdC[PF]) (2)
# Since the experimental data are expressed as %[PR], the calculated concentration of [PR] was normalized by [PR0], the [PR] in the absence of the competitor. [PR0] was obtained by solving equation (1) where [CT]=0. The maximum (M) and minimum (B) %[PR] were allowed to float during the analysis as shown in the following equation:
# %[PR]=[PR]/[PR0](M−B)+B (3)
# A non-linear least-squares fitting procedure was used as described by Bates and Watts (Bates, D. M. and Watts, D. G. 1988 in Non-Linear Regression Analysis and its Applications, D. M. Bates and D. G. Watts editors, John Wiley & Sons, NY, N.Y.). […]
# A group of carbohydrates related to GlcNAc3 were tested for their ability to displace radiolabeled 11.20 from WGA. […] Structures of competitors used in this assay are shown in FIGS. 3A-C along with the Kdc values calculated from the competition profiles (FIGS. 4A-D) according to equations (1)-(3). […]
# WGA = conditions: cited from earlier work; for concentration required to completely inhibit WGA-mediated agglutination: tested previously (U.S. Pat. No. 5,780,228)
# PDGF-BB [3] = target: T1, PDGF-BB; experiment: PDGF aptamer competition assay (displacement of 32P-labeled 20tb, nitrocellulose filter binding); conditions: competition with 1.16 nM 32P end-labeled 20tb, 1.0 nM PDGF-BB, 37° C.; calculated from competition profiles by equations (1)-(3); read-out: KdC
# Protocol: Small molecule oligoanions were screened for their ability to compete with PDGF aptamer 20tb for binding to the PDGF-BB protein. The small molecule (or cold 20tb) competitors at varying concentrations were mixed with the 5′-^32P end-labeled 20tb ligand at room temperature. PDGF was then added to the mixture and allowed to equilibrate for 45 minutes at room temperature followed by 15 minutes at 37° C. The competition mixtures (90 μL volume) all had ^32P end-labeled 20tb at 1.16 nM, PDGF-BB at 1 nM and were in 25 mM Hepes, 137 mM NaCl, 2.7 mM KCl, 1 mM MgCl2, 1 mM CaCl2, 0.067% human serum albumin (HSA), at pH 7.4 (HBSMC). […] The filters were placed in tubes with scintillant and the radioactivity counted to quantitate the fraction of ^32P end-labeled 20tb bound at each competitor concentration.
# Competition experiments were analyzed by the following equation to determine the concentration of free protein, [PF], as a function of the total concentration of competitor added, [CT]: […]
# as §1, with “Equation (1) was solved to self-consistency of [PF] to a precision of 1×10^−15.” left out, “equation: […]” for “equation:”
molecule,measurement,setting,value
"20ta: synthetic 33-mer DNA oligo, PDGF aptamer, 5′CGGGCGCGTTCTTCGTGGTTACTTTTAGTCCCG (DNA, backbone not given here)",Kd,PDGF-BB [1]; aptamer binding to PDGF,0.05 nM
"20tb: synthetic 27-mer DNA oligo, truncated PDGF aptamer, 5′GGGCCGTTTCGGGTTACTTTTAGTCCC (DNA, backbone not given here)",Kd,PDGF-BB [1]; aptamer binding to PDGF-BB,0.5 nM
"CC(=O)N[C@H]1[C@H](O[C@H]2[C@H](O)[C@@H](NC(C)=O)C(O)O[C@@H]2CO)O[C@H](CO)[C@@H](O)[C@@H]1O (some centres unmarked) [(GlcNAc)2, N,N′-diacetylchitobiose]",ability to displace radiolabeled 11.20 from WGA,[2],best ligands
"CC(=O)N[C@H]1[C@H](O[C@H]2[C@H](O)[C@@H](NC(C)=O)C(O)O[C@@H]2CO)O[C@H](CO)[C@@H](O[C@@H]2O[C@H](CO)[C@@H](O)[C@H](O)[C@H]2NC(C)=O)[C@@H]1O (some centres unmarked) [(GlcNAc)3, N,N′,N″-triacetylchitotriose]",ability to displace radiolabeled 11.20 from WGA,[2],best ligands
same,concentration required to completely inhibit WGA-mediated agglutination,WGA,18.5 µM
"CC(=O)N[C@H]1[C@H](O[C@H]2[C@H](O)[C@@H](NC(C)=O)C(O)O[C@@H]2CO)O[C@H](CO)[C@@H](O[C@@H]2O[C@H](CO)[C@@H](O[C@@H]3O[C@H](CO)[C@@H](O)[C@H](O)[C@H]3NC(C)=O)[C@H](O)[C@H]2NC(C)=O)[C@@H]1O (some centres unmarked) [(GlcNAc)4, N,N′,N″,N′″-tetraacetyltetraose]",ability to displace radiolabeled 11.20 from WGA,[2],best ligands
"CC(=O)N[C@H]1C(O)O[C@H](CO)[C@@H](O)[C@@H]1O (stereo partly drawn) [GlcNAc, N-acetyl-D-glucosamine]",ability to displace radiolabeled 11.20 from WGA,[2],not a competitor
same,concentration required to completely inhibit WGA-mediated agglutination,WGA,800 µM
"O=S(=O)(O)c1ccc(N=Nc2c(S(=O)(=O)O)cc3cc(S(=O)(=O)O)cc(O)c3c2O)cc1 [SPADNS, 2-(4-sulfophenylazo)-1,8-dihydroxy-3,6-naphthalene disulfonic acid]",Kd,PDGF-BB [3],19 µM
"O=S(=O)(O)c1ccc2c(S(=O)(=O)O)cc(S(=O)(=O)O)cc2c1 [naphthalene 1,3,6-trisulfonic acid]",Kd,PDGF-BB [3],870 µM
B1,inhibition of WGA-mediated agglutination of sheep erythrocytes,"WGA; as described in U.S. Pat. No. 5,780,228",potently inhibited
